Values after ≈ are worked out from the molar mass of the structure shown. Structures can show the parent of a compound that is named as a salt. Where two headings read alike, the source gives them in different places.
Key:
E. coli CSH2 (RK1) = experiment: microbe, parasite or virus in culture; format: cell-based; settings: Escherichia coli, 16 h, read-out: Minimum Inhibitory Concentration (MIC), *E. coli CSH2 (RK1), lactamase-producing strain; 10^6 CFU/ml
In short: (§1)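 Plate dilution on Mueller Hinton agar with various antibiotic concentrations. Inoculum size was 10^6 CFU/ml, incubation 16 hours at 37° C.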

E. coli CSH(RE45) = experiment: microbe, parasite or virus in culture; format: cell-based; settings: Escherichia coli, 16 h, read-out: Minimum Inhibitory Concentration (MIC), *E. coli CSH(RE45), lactamase-producing strain; 10^6 CFU/ml
In short: as §1

E. coli GN5482 = experiment: in vitro antibacterial activity, agar plate dilution method (MIC); format: cell-based; settings: Escherichia coli
In short: as §1

E. cloacae 963 = experiment: as above; format: cell-based; settings: 10^6 CFU/ml
In short: as §1

S. marcescens No. 16-2 = experiment: as above; format: cell-based; settings: Serratia marcescens, NO.162, 16 h
In short: as §1

K. pneumoniae PCI-602 = experiment: as above; format: cell-based; settings: Klebsiella pneumoniae, PCI602, 16 h, 10^6 CFU/ml
In short: as §1

K. pneumoniae No. 42 = experiment: as above; format: cell-based; settings: Klebsiella pneumoniae, 10^6 CFU/ml
In short: as §1

S. aureus 209P NIHJ-JC1 = experiment: as above; format: cell-based; settings: Staphylococcus aureus, 16 h
In short: as §1

M. morganii GN5407 = experiment: as above; format: cell-based; settings: Morganella morganii, 10^6 CFU/ml
In short: as §1

K. oxytoca GN10650 = experiment: as above; format: cell-based; settings: Klebsiella oxytoca, 10^6 CFU/ml
In short: as §1

E. cloacae Nek 39 = experiment: as above; format: cell-based; settings: Enterobacter cloacae, NEK39, 16 h, 10^6 CFU/ml
In short: as §1

E. coli NIHJ JC2 = experiment: as above; format: cell-based; settings: Escherichia coli
In short: as §1

P. vulgaris No. 33 = experiment: as above; format: cell-based; settings: Proteus vulgaris, 10^6 CFU/ml
In short: as §1

S. marcescens IAM 1184 = experiment: as above; format: cell-based; settings: Serratia marcescens, IAM1184, 16 h, read-out: Minimum Inhibitory Concentration (MIC)
In short: as §1

P. vulgaris HX-19 = experiment: as above; format: cell-based; settings: Proteus vulgaris, HX19, 16 h, P. vulgaris HX-19; 10^6 CFU/ml; read-out: Minimum Inhibitory Concentration (MIC)
In short: as §1

Ps. aeruginosa AK 109 = experiment: as above; format: cell-based, Pseudomonas aeruginosa; settings: Pseudomonas aeruginosa, AK109, 16 h, Ps. aeruginosa AK 109; 10^6 CFU/ml; read-out: Minimum Inhibitory Concentration (MIC)
In short: as §1

Ps. aeruginosa AKR17 = experiment: as above; format: cell-based, Pseudomonas aeruginosa; settings: Pseudomonas aeruginosa, 16 h; Ps. aeruginosa AKR17; 10^6 CFU/ml; read-out: Minimum Inhibitory Concentration (MIC)
In short: as §1

Ps. aeruginosa IF03445 = experiment: as above; format: cell-based, Pseudomonas aeruginosa; settings: Pseudomonas aeruginosa, 16 h; Ps. aeruginosa IF03445; 10^6 CFU/ml; read-out: Minimum Inhibitory Concentration (MIC)
In short: as §1

A. calcoaceticus No. 4 = experiment: as above; format: cell-based, Acinetobacter calcoaceticus; settings: Acinetobacter calcoaceticus, NO.4, 16 h, 10^6 CFU/ml
In short: as §1

Ps. cepacia 23 = experiment: as above; format: cell-based, Pseudomonas cepacia; settings: read-out: Minimum Inhibitory Concentration (MIC)
In short: as §1

[1] = 16 h, *E. coli GN5482, lactamase-producing strain, 10^6 CFU/ml, read-out: Minimum Inhibitory Concentration (MIC)
[2] = Enterobacter cloacae, 16 h, E. cloacae 963, read-out: Minimum Inhibitory Concentration (MIC)
[3] = read-out: Minimum Inhibitory Concentration (MIC), *S. marcescens No. 16-2, lactamase-producing strain, 10^6 CFU/ml
[4] = read-out: Minimum Inhibitory Concentration (MIC), K. pneumoniae PCI-602
[5] = 16 h, *K. pneumoniae No. 42, lactamase-producing strain, read-out: Minimum Inhibitory Concentration (MIC)
[6] = read-out: Minimum Inhibitory Concentration (MIC)
[7] = 16 h, *M. morganii GN5407, lactamase-producing strain, read-out: Minimum Inhibitory Concentration (MIC)
[8] = GN10650, 16 h, read-out: Minimum Inhibitory Concentration (MIC), *K. oxytoca GN10650, lactamase-producing strain
[9] = *E. cloacae Nek 39, lactamase-producing strain, read-out: Minimum Inhibitory Concentration (MIC)
[10] = NIHJJC2, E. coli NIHJ JC2, 10^6 CFU/ml, 37° C., 16 hours, read-out: Minimum Inhibitory Concentration (MIC)
[11] = 16 h, *P. vulgaris No. 33, lactamase-producing strain, read-out: Minimum Inhibitory Concentration (MIC)
[12] = S. marcescens IAM 1184, 10^6 CFU/ml
[13] = A. calcoaceticus No. 4, read-out: Minimum Inhibitory Concentration (MIC)
[14] = *S. marcescens No. 16-2, lactamase-producing strain, 10^6 CFU/ml, read-out: Minimum Inhibitory Concentration (MIC)
[15] = K. pneumoniae PCI-602, read-out: Minimum Inhibitory Concentration (MIC)
[16] = read-out: Minimum Inhibitory Concentration (MIC), S. aureus 209P NIHJ-JC1, 10^6 CFU/ml, 37° C., 16 hours
[17] = GN5407, 16 h, read-out: Minimum Inhibitory Concentration (MIC), *M. morganii GN5407, lactamase-producing strain
[18] = 16 h, *K. oxytoca GN10650, lactamase-producing strain, read-out: Minimum Inhibitory Concentration (MIC)
[19] = NIHJJC2, 16 h, read-out: Minimum Inhibitory Concentration (MIC), E. coli NIHJ JC2, 10^6 CFU/ml, 37° C.
[20] = NO.33, 16 h, read-out: Minimum Inhibitory Concentration (MIC), *P. vulgaris No. 33, lactamase-producing strain
[21] = S. aureus 209P NIHJ-JC1, 10^6 CFU/ml, 37° C., 16 hours, read-out: Minimum Inhibitory Concentration (MIC)
[22] = Burkholderia cepacia, 16 h, Ps. cepacia 23, 10^6 CFU/ml
[23] = GN5482, 16 h, read-out: Minimum Inhibitory Concentration (MIC)

| Compound | MIC (E. coli CSH2 (RK1)) [µg/mL] | MIC (E. coli CSH(RE45)) [µg/mL] | MIC (E. cloacae 963; [2]) [µg/mL] | MIC (K. pneumoniae PCI-602; [4]) [µg/mL] | MIC (K. pneumoniae No. 42; [5]) [µg/mL] | MIC (M. morganii GN5407; [7]) [µg/mL] | MIC (E. cloacae Nek 39; [9]) [µg/mL] | MIC (E. coli NIHJ JC2; [10]) [µg/mL] | MIC (P. vulgaris No. 33; [11]) [µg/mL] | MIC (S. marcescens IAM 1184; [12]) [µg/mL] | MIC (P. vulgaris HX-19) [µg/mL] | MIC (Ps. aeruginosa AK 109) [µg/mL] | MIC (Ps. aeruginosa AKR17) [µg/mL] | MIC (Ps. aeruginosa IF03445) [µg/mL] | MIC (A. calcoaceticus No. 4; [13]) [µg/mL] | MIC (Ps. cepacia 23; Burkholderia cepacia, 23, 16 h) [µg/mL] | MIC (S. marcescens No. 16-2; [14]) [µg/mL] | MIC (K. pneumoniae PCI-602; [15]) [µg/mL] | MIC (M. morganii GN5407; [17]) [µg/mL] | MIC (K. oxytoca GN10650; [18]) [µg/mL] | further results |
| --- | --- | --- | --- | --- | --- | --- | --- | --- | --- | --- | --- | --- | --- | --- | --- | --- | --- | --- | --- | --- | --- |
| CO/N=C(\C(=O)N[C@@H]1C(=O)N2C(C(=O)O)=C(CSc3nnc(-c4ccccc4)o3)CS[C@H]12)c1csc(N)n1 [compound 1, 7β-[2-(2-aminothiazol-4-yl)-2-methoxyiminoacetamido]-3-(5-phenyl-1,3,4-oxadiazol-2-yl)thiomethyl-3-cephem-4-carboxylic acid trifluoroacetate, reference compound] | 0.39 | 0.39 | 1.56 | 0.0125 | 1.56 | 0.78 | 3.12 | 0.78 | 0.78 | 1.56 | < 0.006 | 50 | > 100 | > 100 | 100 | 12.5 | – | – | – | – | MIC (E. coli GN5482; [1]): 0.78 µg/mL; MIC (S. marcescens No. 16-2; [3]): 6.25 µg/mL; MIC (S. aureus 209P NIHJ-JC1; [6]): 0.39 µg/mL; MIC (K. oxytoca GN10650; [8]): 6.25 µg/mL |
| CO/N=C(\C(=O)N[C@@H]1C(=O)N2C(C(=O)O)=C(CSc3nnc(-c4ccc(O)cc4)o3)CS[C@H]12)c1csc(N)n1 [compound 2, reference compound] | 0.78 (≈ 1.32 µM) | 0.39 (≈ 0.661 µM) | 1.56 (≈ 2.65 µM) | – | 1.56 (≈ 2.65 µM) | – | – | – | – | – | < 0.006 | 50 (≈ 84.8 µM) | > 100 | 100 (≈ 170 µM) | 50 (≈ 84.8 µM) | 12.5 (≈ 21.2 µM) | 25 (≈ 42.4 µM) | 0.0125 (≈ 0.0212 µM) | 0.78 (≈ 1.32 µM) | 25 (≈ 42.4 µM) | MIC (E. coli GN5482; GN5482, 16 h, read-out: Minimum Inhibitory Concentration (MIC), *E. coli GN5482, lactamase-producing strain, 10^6 CFU/ml): 0.78 µg/mL (≈ 1.32 µM); MIC (S. aureus 209P NIHJ-JC1; [16]): 0.78 µg/mL (≈ 1.32 µM); MIC (E. cloacae Nek 39; read-out: Minimum Inhibitory Concentration (MIC), *E. cloacae Nek 39, lactamase-producing strain): 6.25 µg/mL (≈ 10.6 µM); MIC (E. coli NIHJ JC2; [19]): 0.78 µg/mL (≈ 1.32 µM); MIC (P. vulgaris No. 33; [20]): 0.78 µg/mL (≈ 1.32 µM); MIC (S. marcescens IAM 1184): 0.78 µg/mL (≈ 1.32 µM) |
| CO/N=C(\C(=O)N[C@@H]1C(=O)N2C(C(=O)O)=C(CSc3nnc(-c4ccccc4)s3)CS[C@H]12)c1csc(N)n1 [compound 5, 7β-[2-(2-aminothiazol-4-yl)-2-methoxyiminoacetamido]-3-(5-phenyl-1,3,4-thiadiazol-2-yl) thiomethyl-3-cephem-4-carboxylic acid trifluoroacetate, reference compound] | 0.2 | 0.2 | 0.78 | – | 0.78 | 0.78 | 3.12 | 0.39 | 0.39 | 0.78 | 0.0125 | 50 | > 100 | 50 | 3.12 | – | 3.12 | 0.0125 | – | 6.25 | MIC (E. coli GN5482; [1]): 0.39 µg/mL; MIC (S. aureus 209P NIHJ-JC1; [21]): 0.39 µg/mL; MIC (Ps. cepacia 23; [22]): 3.12 µg/mL |
| CC(C)(O/N=C(\C(=O)N[C@@H]1C(=O)N2C(C(=O)O)=C(CSc3nnc(-c4ccccc4)s3)CS[C@H]12)c1csc(N)n1)C(=O)O [compound 6, disodium 7β-[2-(2-aminothiazol-4-yl)-(1-carboxylate-1-methylethoxyimino)acetamido]-3-(5-phenyl-1,3,4-thiadiazol-2-yl) thiomethyl-3-cephem-4carboxylate, reference compound] | 3.12 | 3.12 | 6.25 | 0.1 | 6.25 | 6.25 | 50 | – | 0.39 | 1.56 | < 0.006 | 100 | > 100 | 50 | 6.25 | 12.5 | – | – | – | 6.25 | MIC (E. coli GN5482; [23]): 3.12 µg/mL; MIC (S. marcescens No. 16-2; [6]): 12.5 µg/mL; MIC (S. aureus 209P NIHJ-JC1; [6]): 3.12 µg/mL; MIC (E. coli NIHJ JC2; [19]): 3.12 µg/mL |
| CO/N=C(\C(=O)N[C@@H]1C(=O)N2C(C(=O)O)=C(CSc3nnc(-c4ccc(O)cc4)s3)CS[C@H]12)c1csc(N)n1 [compound 7, 7β-[2-(2-aminothiazol-4-yl)-2methoxyiminoacetamido]-3-[5-(4-hydroxyphenyl-1,3,4-thiadiazol-2-yl)thiomethyl-3-cephem-4-carboxylic acid trifluoroacetate, reference compound] | 0.2 | 0.2 | 1.56 | – | 1.56 | – | 3.12 | 0.39 | 1.56 | 0.39 | < 0.006 | 25 | > 100 | 25 | 1.56 | – | 3.12 | < 0.006 | 0.78 | 3.12 | MIC (E. coli GN5482; [23]): 0.78 µg/mL; MIC (S. aureus 209P NIHJ-JC1; [21]): 0.39 µg/mL; MIC (Ps. cepacia 23; [22]): 3.12 µg/mL |
| CC(C)(O/N=C(\C(=O)N[C@@H]1C(=O)N2C(C(=O)O)=C(CSc3nnc(-c4ccc(O)cc4)s3)CS[C@H]12)c1csc(N)n1)C(=O)O [compound 8, disodium 7β-[2-(2-aminothiazol-4-yl)-2-(1-carboxylate-1-methylethoxyimino)acetamido]-3-[5-(4-hydroxyphenyl)-1,3,4-thiadiazol-2-yl)thiomethyl-3-cephem-4-carboxylate, reference compound] | 0.78 | 0.78 | – | 0.1 | – | – | 25 | – | – | – | < 0.006 | 25 | > 100 | 25 | – | 6.25 | – | – | 1.56 | – | MIC (E. coli GN5482; [23]): 3.12 µg/mL; MIC (E. cloacae 963; Enterobacter cloacae, 963, 16 h, read-out: Minimum Inhibitory Concentration (MIC), E. cloacae 963): 6.25 µg/mL; MIC (S. marcescens No. 16-2; [3]): 6.25 µg/mL; MIC (K. pneumoniae No. 42; NO.42, 16 h, read-out: Minimum Inhibitory Concentration (MIC), *K. pneumoniae No. 42, lactamase-producing strain): 3.12 µg/mL; MIC (S. aureus 209P NIHJ-JC1; [16]): 6.25 µg/mL; MIC (K. oxytoca GN10650; [8]): 6.25 µg/mL; MIC (E. coli NIHJ JC2; [19]): 3.12 µg/mL; MIC (P. vulgaris No. 33; [20]): 0.2 µg/mL; MIC (S. marcescens IAM 1184): 0.78 µg/mL; MIC (A. calcoaceticus No. 4; read-out: Minimum Inhibitory Concentration (MIC), A. calcoaceticus No. 4): 3.12 µg/mL |

From US5061794A, “Cephalosporin derivatives, and antibacterial agents” (priority 1986, dated 1991)
